In brackets after ≈: the same amount, converted by molar mass.

One experiment has as its system racemase. As to conditions: in words; literature; formed by bacterial peptidase; cited from earlier work.
Another experiment deals with Streptococcus faecalis. Kind of experiment: Antibacterial activity, MIC by Method 1 (method of Atherton et al). It is filed as cell-based. The settings on record: for MIC: Enterococcus faecalis, read-out: Minimum inhibiting concentration (MIC). Here is the method:
(§1) Antibacterial activity was tested by two methods.
(§2) Minimum inhibiting concentration (MIC, μg/ml) was determined by the method of Atherton et al (Antimicrobial Agent and Chemotherapy 15, 677, 1979).
(§3) Antibacterial activity: MIC (μ g/ml) [by Method 1]

For a further experiment, the system named is E. coli. The description is as above. The class given is cell-based. The settings on record: for MIC: Escherichia coli, read-out: Minimum inhibiting concentration (MIC). How it is done: as §1, §2, §3
The test system of another experiment is Serratia marcescens. The experiment is described as above. As to conditions: for MIC: read-out: Minimum inhibiting concentration (MIC). It is filed as cell-based. Here is the method:
as §1, §2, §3

Another experiment has as its system Pseudomonas aeruginosa. The experiment is described as above. The class given is cell-based. As to conditions: for MIC: read-out: Minimum inhibiting concentration (MIC). How it is done:
as §1, §2, §3

Another experiment deals with E. coli TEM 2. The experiment is described as above. The settings on record: for MIC: Escherichia coli, TEM2, read-out: Minimum inhibiting concentration (MIC). It is filed as cell-based. How it is done:
as §1, §2, §3

Another experiment has as its system Salmonella typhimurium. The experiment is described as above. The class given is cell-based. The settings on record: for MIC: Salmonella enterica, read-out: Minimum inhibiting concentration (MIC). Here is the method: as §1, §2, §3
In the next experiment the test system is Proteus vulgaris. The experiment is described as above. The class given is cell-based. The settings on record: for MIC: read-out: Minimum inhibiting concentration (MIC). Here is the method: as §1, §2, §3
Another experiment relates to E. coli DC 2. The experiment is described as above. As to conditions: for MIC: Escherichia coli, DC2, read-out: Minimum inhibiting concentration (MIC). The class given is cell-based. How it is done: as §1, §2, §3
A further experiment has as its system Staphylococcus aureus. Described as above. The class given is cell-based. The settings on record: for MIC: read-out: Minimum inhibiting concentration (MIC). Here is the method:
as §1, §2, §3

Assay in experiment [1]: as above
It is filed as cell-based. As to conditions: Enterococcus cloacae, read-out: Minimum inhibiting concentration (MIC). Here is the method: as §1, §2, §3

For a further experiment, the system named is Klebsiella pneumoniae. Described as above. The class given is cell-based. As to conditions: for MIC: read-out: Minimum inhibiting concentration (MIC). Here is the method:
as §1, §2, §3

Experiment [2] concerns bacterial cell wall synthesis. As to conditions: in words; literature; cited from earlier work.
Another experiment has as its system Enterococcus cloacae. Briefly: Antibacterial activity, MIC by Method 1 (method of Atherton et al). The class given is cell-based. How it is done: as §1, §2, §3

For the compound `CC(N)P(=O)(O)O` (stereo not drawn) [1-aminoethylphosphonic acid], the “inhibition of racemase activity” value with racemase is on record as “inhibiting racemase activity”.

On to `CCC[C@H](N)C(=O)NC(CP(=O)(O)C(C)N)C(=O)O` (stereo partly drawn) [Compound No. 6-1, (1-Aminoethyl)(2-L-norvalylamino-2-carboxyethyl)phosphinic acid], for which the MIC with Streptococcus faecalis was 16 µg/mL (≈ 54.2 µM); in the experiment on E. coli, 16 µg/mL (≈ 54.2 µM); with Serratia marcescens, above 256 µg/mL; in the experiment with Pseudomonas aeruginosa, above 256 µg/mL; in the experiment with E. coli TEM 2, 256 µg/mL (≈ 867 µM); in the experiment with Salmonella typhimurium it was 128 µg/mL (≈ 433 µM). In addition, the MIC in the experiment on Proteus vulgaris worked out at 1 µg/mL (≈ 3.39 µM); in the experiment with E. coli DC 2, 16 µg/mL (≈ 54.2 µM); with Staphylococcus aureus, 32 µg/mL (≈ 108 µM); in experiment [1], 64 µg/mL (≈ 217 µM).

Consider `CSCC[C@H](N)C(=O)NC(CP(=O)(O)C(C)N)C(=O)O` (stereo partly drawn) [Compound No. 10, (1-Aminoethyl)(2-L-methionylamino-2-carboxyethyl)phosphinic acid], for which the MIC was 2 µg/mL (≈ 6.11 µM) in the experiment with Streptococcus faecalis; 64 µg/mL (≈ 196 µM) in the experiment on E. coli; above 256 µg/mL with Serratia marcescens; above 256 µg/mL with Klebsiella pneumoniae; above 256 µg/mL in the experiment on Pseudomonas aeruginosa; 256 µg/mL (≈ 782 µM) with E. coli TEM 2. The MIC in the experiment with Salmonella typhimurium was above 256 µg/mL; in the experiment with Proteus vulgaris, 8 µg/mL (≈ 24.4 µM); with E. coli DC 2, 32 µg/mL (≈ 97.8 µM); with Staphylococcus aureus, 4 µg/mL (≈ 12.2 µM); in [1], 256 µg/mL (≈ 782 µM).

In the case of `CCC[C@H](NC(=O)[C@H](C)N)C(=O)NC(CP(=O)(O)C(C)N)C(=O)O` (stereo partly drawn) [Compound No. 20, (1-Aminoethyl)(2-L-alanyl-L-norvalylamino-2-carboxyethyl)phosphinic acid], the MIC was at most 0.25 µg/mL in the experiment with Streptococcus faecalis; 0.5 µg/mL (≈ 1.36 µM) with E. coli; 0.5 µg/mL (≈ 1.36 µM) with Serratia marcescens; at most 0.25 µg/mL in the experiment on Klebsiella pneumoniae; 256 µg/mL (≈ 699 µM) in the experiment on Pseudomonas aeruginosa; at most 0.25 µg/mL with E. coli TEM 2. The MIC in the experiment with Salmonella typhimurium is 0.5 µg/mL (≈ 1.36 µM); with Proteus vulgaris, 0.5 µg/mL (≈ 1.36 µM); in the experiment with E. coli DC 2 it was at most 0.25 µg/mL; in the experiment on Staphylococcus aureus, 256 µg/mL (≈ 699 µM); in experiment [1], 0.5 µg/mL (≈ 1.36 µM).

On to `CC(N)C(=O)NC(C)P(=O)(O)O` (stereo not drawn) [alaphosphalin], for which the “antibacterial action / inhibition of bacterial cell wall synthesis” value in experiment [2] is “antibacterial action”.

Turning to “(D-1-aminoethyl)(2-L-nor-valylamino -2-L- or -D-carboxyethyl)phosphinic acid [6-2]”, the “Minimum inhibiting concentration (MIC)” value is 1 µg/mL in the experiment on Streptococcus faecalis; 8 µg/mL in the experiment on E. coli; 128 µg/mL in the experiment on Serratia marcescens; 64 µg/mL in the experiment on Klebsiella pneumoniae; above 256 µg/mL with Pseudomonas aeruginosa; 64 µg/mL in the experiment on E. coli TEM 2. Moreover, the “Minimum inhibiting concentration (MIC)” value with Enterococcus cloacae was 16 µg/mL; with Salmonella typhimurium it was 32 µg/mL; in the experiment on Proteus vulgaris it was 1 µg/mL; in the experiment on E. coli DC 2 it was 4 µg/mL; with Staphylococcus aureus, 8 µg/mL.

Source of the values: patent US5030732A, “Aminoethylphosphinic acid derivatives” (Merck & Co., Inc., priority 1988, dated 1991).
